Results taken from patent US9840496B2, “CD38 inhibitors and methods of treatment” (GlaxoSmithKline Intellectual Property (No.2) Limited, priority 2014, dated 2017).

target: T1, human CD38 (Homo sapiens, UniProt P28907); assay: human CD38 enzyme activity colorimetric assay; assay type: biochemical; details: extracellular domain of human CD38, 0.4 nM CD38, 100 uM NAD+
T1 construct: The extracellular domain of human CD38 was expressed in pichia pastoris and purified to homogeneity; made in house; host or cells: Pichia pastoris
T1 sequence (P28907 43-300 limits assumed): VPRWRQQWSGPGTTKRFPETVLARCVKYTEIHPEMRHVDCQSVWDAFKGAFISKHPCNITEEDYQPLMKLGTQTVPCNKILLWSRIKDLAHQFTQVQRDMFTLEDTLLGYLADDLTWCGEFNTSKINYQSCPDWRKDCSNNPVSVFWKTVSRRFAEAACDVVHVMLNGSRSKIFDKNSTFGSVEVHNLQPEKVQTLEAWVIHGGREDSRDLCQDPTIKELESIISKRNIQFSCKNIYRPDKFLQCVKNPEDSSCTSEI
Experimental: The extracellular domain of human CD38 was expressed in pichia pastoris and purified to homogeneity. The enzyme activity assay was performed in a low-volume 384-well plate in a total volume of 20 μL. A range of concentrations of test compound in 200 nL DMSO was delivered into the assay plate wells. Columns 6 and 18 of the plate contained DMSO with no compound and served as the high signal and low signal controls (no CD38 added), respectively. All additions of assay reagents to the plate were done using a Multidrop Combi, and the plate was shaken 3-5 seconds after each addition. CD38 (0.8 nM) was incubated with test compound in 10 μL containing 100 mM HEPES, pH 7.4, 4 mM EDTA, and 1 mM CHAPS for 30 minutes prior to initiation of the reaction. The reaction was initiated by a 10 μL addition containing 5 mM sodium acetate, pH 4.5, 1 mM CHAPS, 200 μM NAD+ and 500 uM GW323424X. The solutions for each of the two additions were prepared fresh each day from concentrated stocks of the individual components. […] Catalytic formation of this novel chromophore was followed in an Envision microplate reader by reading absorbance at two time points, typically 30 minutes apart within the first 45 minutes of the reaction. These time points were established empirically to ensure the rates determined were in a linear range of product formation. Data analysis was performed in the following way using ActivityBase XE (Abase XE). The data from the 15 and 45 minute reads was processed by performing a subtraction function of 45 minute read value minus 15 minute read value for each plate well. The resulting values for non-control wells were converted to % inhibition using the formula 100*((U−C1)/(C2−C1)) where U is the value of the test well, C1 is the average of the values of the high signal (column 6) control wells, and C2 is the average of the values of the low signal (column 18) control wells. Percent inhibition (y) was plotted versus inhibitor concentration (x), and curve fitting was performed with the following four parameter equation: y=A+((B−A)/(1+(10^x/10^C)^D)), where A is the minimum response, B is the maximum response, C is the log10IC50, and D is the Hill slope.

Row | IC50 | Molecule
1 | 500 to 1000 nM | CCC(O)(CN[C@H]1CC[C@H](NC(=O)c2cc(-n3ccnc3)cc3cc[nH]c23)CC1)C(F)(F)F (stereo partly drawn) [example 1, N-((1r,4r)-4-((2-Hydroxy-2-(trifluoromethyl)butyl)amino)cyclohexyl)-5-(1Himidazol-1-yl)-1H-indole-7-carboxamide]
2 | 500 to 1000 nM | C[C@](CO)(N[C@H]1CC[C@H](NC(=O)c2cc(-n3ccnc3)cc3cc[nH]c23)CC1)C(F)(F)F [example 2, 5-(1H-Imidazol-1-yl)-N-((1R,4r)-4-(((R)-1,1,1-trifluoro-3-hydroxy-2-methylpropan-2-yl)amino)cyclohexyl)-1H-indole-7-carboxamide]
3 | > 1000 nM | CC(C)c1c[nH]c2c(C(=O)N[C@H]3CC[C@H](OCC(C)(C)O)CC3)cc(-n3ccnc3)cc12 [example 3, N-((1r,4r)-4-(2-Hydroxy-2-methylpropoxy)cyclohexyl)-5-(1H-imidazol-1-yl)-3-isopropyl-1H-indole-7-carboxamide]
4 | < 500 nM | CNC(=O)[C@H]1CC[C@H](NC(=O)c2cc(-n3ccnc3)cc3cc[nH]c23)CC1 [example 4, 5-(1H-Imidazol-1-yl)-N-((1s,4s)-4-(methylcarbamoyl)cyclohexyl)-1H-indole-7-carboxamide]
5 | < 500 nM | CC(O)CO[C@H]1CC[C@H](NC(=O)c2cc(-n3ccnc3)cc3cc[nH]c23)CC1 (stereo partly drawn) [example 7, N-((1r,4r)-4-(2-Hydroxypropoxy)cyclohexyl)-5-(1H-imidazol-1-yl)-1H-indole-7-carboxamide]
6 | 500 to 1000 nM | CC(O)CO[C@H]1CC[C@H](NC(=O)c2cc(-n3ccnc3)cc3c(Cl)c[nH]c23)CC1 (stereo partly drawn) [example 8, 3-Chloro-N-((1r,4r)-4-(2-hydroxypropoxy)cyclohexyl)-5-(1H-imidazol-1-yl)-1H-indole-7-carboxamide]
7 | < 500 nM | CC(O)(CO[C@H]1CC[C@H](NC(=O)c2cc(-n3ccnc3)cc3cc[nH]c23)CC1)C(F)(F)F (stereo partly drawn) [example 9]
8 | < 500 nM | O=C(N[C@H]1CC[C@H](NCC(F)F)CC1)c1cc(-n2ccnc2)cc2cc[nH]c12 [example 12, N-((1r,4r)-4-((2,2-Difluoroethyl)amino)cyclohexyl)-5-(1H-imidazol-1-yl)-1H-indole-7-carboxamide]

The next lines start with the molecule.

Row | Molecule | IC50
9 | CC(O)(CN[C@H]1CC[C@H](NC(=O)c2cc(-n3ccnc3)cc3cc[nH]c23)CC1)C(F)(F)F (stereo partly drawn) [example 10, 5-(1H-Imidazol-1-yl)-N-((1r,4r)-4-((3,3,3-trifluoro-2-hydroxy-2-methylpropyl)amino)cyclohexyl)-1H-indole-7-carboxamide] | > 1000 nM
10 | CC(O)(C(=O)N[C@H]1CC[C@H](NC(=O)c2cc(-n3ccnc3)cc3cc[nH]c23)CC1)C(F)(F)F (stereo partly drawn) [example 11, 5-(1H-Imidazol-1-yl)-N-((1r,4r)-4-(3,3,3-trifluoro-2-hydroxy-2-methylpropanamido)cyclohexyl)-1H-indole-7-carboxamide] | < 500 nM
11 | O=C(N[C@H]1CC[C@H](NCC(F)F)CC1)c1cc(-n2ccnc2)cc2c(Cl)c[nH]c12 [example 13, 3-Chloro-N-((1r,4r)-4-((2,2-difluoroethyl)amino)cyclohexyl)-5-(1H-imidazol-1-yl)-1H-indole-7-carboxamide] | > 1000 nM
12 | CC(C)C(O)CO[C@H]1CC[C@H](NC(=O)c2cc(-n3ccnc3)cc3cc[nH]c23)CC1 (stereo partly drawn) [example 14, N-((1r,4r)-4-(2-Hydroxy-3-methylbutoxy)cyclohexyl)-5-(1H-imidazol-1-yl)-1H-indole-7-carboxamide] | < 500 nM
13 | CC(O)(COC1CCC(NC(=O)c2cc(-n3ccnc3)cc3cc[nH]c23)CC1)C1CC1 (stereo not drawn) [example 15, N-((1r,4r)-4-(2-Cyclopropyl-2-hydroxypropoxy)cyclohexyl)-5-(1H-imidazol-1-yl)-1H-indole-7-carboxamide] | < 500 nM
14 | C[C@@H](CS(C)(=O)=O)N[C@H]1CC[C@H](NC(=O)c2cc(-n3ccnc3)cc3cc[nH]c23)CC1 [example 16, 5-(1H-Imidazol-1-yl)-N-((1R,4r)-4-(((R)-1-(methylsulfonyl)propan-2-yl)amino)cyclohexyl)-1H-indole-7-carboxamide] | > 1000 nM
15 | N-((1r,4r)-4-(2-Hydroxy-2-methylpropoxy)cyclohexyl)-5-(1H-imidazol-1-yl)-1H-indole-7-carboxamide [example 6] | < 500 nM
